Patent publication US20220323372A1, “COMPOSITION FOR IMPROVING LIVER FUNCTION” (NITTO FUJI FLOUR MILLING CO., LTD., priority 2019, published 2022)

Columns and labels:
[1] = tested on: Non-alcoholic steatohepatitis model mice (C57BL/6NASH mice); assay: Weight gain in hepatitis model mice (Test Example 2); type: in vivo; conditions: Resveratrol group (group R): feed blended with 0.4 mass % of resveratrol, ad libitum
[2] = tested on: Non-alcoholic steatohepatitis model mice (C57BL/6NASH mice); assay: AST value in plasma (Test Example 3); type: in vivo; conditions: group R: feed with 0.4 mass % of resveratrol; week 0 to week 4; vs control group
Source text: (§1) Non-alcoholic steatohepatitis model mice (Japan Charles River Co., Ltd., C57BL/6NASH mice, male) were purchased at the age of six weeks, acclimated for two days, and reared six per cage. The mice were reared in a constant temperature/constant humidity room maintained on a 12-hour light-dark cycle (light: 8 a.m. to 8 p.m.). After the acclimation phase, the feeds shown below were fed ad libitum in accordance with the test group. • Control group (group C): control feed not blended with test substance • Resveratrol group (group R): feed blended with 0.4 mass % of resveratrol (Tokyo Chemical Industry Co., Ltd.) • ARs high dose group (group AH): feed blended with 0.9 mass % of ARs • ARs low dose group (group AL): feed blended with 0.3 mass % of ARs The body weight was measured once a day during the test phase. Blood samples were also drawn once a week. Blood was drawn from the caudal vein of the mice, and plasma was obtained. The plasma was stored at −80° C. until being used in measurement. Also, after the body weight was measured on the final day of the test, blood was drawn under anesthesia by diethyl ether. The liver was removed immediately after sacrifice, weighed, and frozen by dry ice. […] The aspartate aminotransferase (AST) value and alanine aminotransferase (ALT) value in the plasma, which are general indicators of liver function, were measured. […]

[3] = tested on: Non-alcoholic steatohepatitis model mice (C57BL/6NASH mice); assay: ALT value in plasma (Test Example 3); type: in vivo; conditions: group R: feed with 0.4 mass % of resveratrol; week 0 to week 4; vs control group
Source text: as §1

[4] = tested on: Non-alcoholic steatohepatitis model mice (C57BL/6NASH mice); assay: Triglyceride level in liver tissue (Test Example 4); type: in vivo; conditions: group R: feed with 0.4 mass % of resveratrol; control group 130 mg/g
Source text: Non-alcoholic steatohepatitis model mice (Japan Charles River Co., Ltd., C57BL/6NASH mice, male) were purchased at the age of six weeks, acclimated for two days, and reared six per cage. The mice were reared in a constant temperature/constant humidity room maintained on a 12-hour light-dark cycle (light: 8 a.m. to 8 p.m.). After the acclimation phase, the feeds shown below were fed ad libitum in accordance with the test group. • Control group (group C): control feed not blended with test substance • Resveratrol group (group R): feed blended with 0.4 mass % of resveratrol (Tokyo Chemical Industry Co., Ltd.) • ARs high dose group (group AH): feed blended with 0.9 mass % of ARs • ARs low dose group (group AL): feed blended with 0.3 mass % of ARs The body weight was measured once a day during the test phase. Blood samples were also drawn once a week. Blood was drawn from the caudal vein of the mice, and plasma was obtained. The plasma was stored at −80° C. until being used in measurement. Also, after the body weight was measured on the final day of the test, blood was drawn under anesthesia by diethyl ether. The liver was removed immediately after sacrifice, weighed, and frozen by dry ice. […] A quantity of 0.5 mL of normal saline was added to the recovered supernatant and mixed for several seconds. […] The resultant mixture served as a sample, and the triglyceride level was measured. […]

[5] = tested on: Non-alcoholic steatohepatitis model mice (C57BL/6NASH mice); assay: Pathology evaluation of liver tissue by HE stain (Test Example 5); type: in vivo; conditions: group R: feed with 0.4 mass % of resveratrol; vs control group
Source text: Non-alcoholic steatohepatitis model mice (Japan Charles River Co., Ltd., C57BL/6NASH mice, male) were purchased at the age of six weeks, acclimated for two days, and reared six per cage. The mice were reared in a constant temperature/constant humidity room maintained on a 12-hour light-dark cycle (light: 8 a.m. to 8 p.m.). After the acclimation phase, the feeds shown below were fed ad libitum in accordance with the test group. • Control group (group C): control feed not blended with test substance • Resveratrol group (group R): feed blended with 0.4 mass % of resveratrol (Tokyo Chemical Industry Co., Ltd.) • ARs high dose group (group AH): feed blended with 0.9 mass % of ARs • ARs low dose group (group AL): feed blended with 0.3 mass % of ARs The body weight was measured once a day during the test phase. Blood samples were also drawn once a week. Blood was drawn from the caudal vein of the mice, and plasma was obtained. The plasma was stored at −80° C. until being used in measurement. Also, after the body weight was measured on the final day of the test, blood was drawn under anesthesia by diethyl ether. The liver was removed immediately after sacrifice, weighed, and frozen by dry ice. The liver was divided into halves, and each was placed in a 1.5 mL tube and frozen at −80° C. Frozen liver tissue was embedded in paraffin and sliced. […]

[6] = tested on: intracellular mitochondria number of liver tissue; assay: Intracellular mitochondria number of liver tissue, weight ratio of mitochondrial DNA to genomic DNA (Test Example 8); type: in vivo, mice; conditions: group R: feed with 0.4 mass % of resveratrol; vs control group
Protocol: In this test example, the intracellular mitochondria number of the liver tissue was examined. Specifically, the intracellular mitochondria number of the liver tissue was evaluated by comparing the weight ratio of mitochondrial DNA to genomic DNA, measured by quantitative PCR as follows. DNA was extracted from liver tissue using a “NucleoSpin (registered trademark) Tissue kit (manufactured by Takara Bio Inc.)” according to the company's instructions. Each DNA copy number was quantified using a “Mouse Feeder Cell Quantification Kit (manufactured by Takara Bio Inc.)” according to the company's instructions. Primers having the following sequences were used. The PCR reaction was carried out under the following conditions. (95° C.,30 seconds→95° C.,5 seconds→60° C.,30 seconds)×40 cycles→95° C.,60 seconds For the weight ratio of measured mitochondrial DNA to genomic DNA, the relative values of each group were compared, taking the control group (group C) as 100%.

Oc1ccc(C=Cc2cc(O)cc(O)c2)cc1 [resveratrol]
weight gain during the test phase [1]: weight gain suppression in the hepatitis model mice could not be improved
changes in AST value in plasma [2]: the changes were almost the same as the control group
changes in ALT value in plasma [3]: the changes were almost the same as the control group
triglyceride level in liver tissue [4]: could not be corrected
blank spaces derived from fat droplets in HE stained liver tissue [5]: virtually no effect was seen
intracellular mitochondria number of liver tissue (weight ratio of mitochondrial DNA to genomic DNA) [6]: no changes in intracellular mitochondria number were seen
